Columns and labels:
[1] = target: T1, ADAM-10 (UniProt O14672); experiment: ADAM-10 enzyme assay, cleavage of a fluorogenic 10-residue peptide; format: biochemical, mouse or human (mADAM-10 or hADAM-10); details: in vitro;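 further: mouse or human ADAM-10 at 5 nM active enzyme, pH 8.0 HEPES buffer with CaCl2 and NP-40, compounds titrated 100 µM down to 0.5 nM, fluorescence read after 16 h at room temperature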
T1 sequence (O14672 1-748): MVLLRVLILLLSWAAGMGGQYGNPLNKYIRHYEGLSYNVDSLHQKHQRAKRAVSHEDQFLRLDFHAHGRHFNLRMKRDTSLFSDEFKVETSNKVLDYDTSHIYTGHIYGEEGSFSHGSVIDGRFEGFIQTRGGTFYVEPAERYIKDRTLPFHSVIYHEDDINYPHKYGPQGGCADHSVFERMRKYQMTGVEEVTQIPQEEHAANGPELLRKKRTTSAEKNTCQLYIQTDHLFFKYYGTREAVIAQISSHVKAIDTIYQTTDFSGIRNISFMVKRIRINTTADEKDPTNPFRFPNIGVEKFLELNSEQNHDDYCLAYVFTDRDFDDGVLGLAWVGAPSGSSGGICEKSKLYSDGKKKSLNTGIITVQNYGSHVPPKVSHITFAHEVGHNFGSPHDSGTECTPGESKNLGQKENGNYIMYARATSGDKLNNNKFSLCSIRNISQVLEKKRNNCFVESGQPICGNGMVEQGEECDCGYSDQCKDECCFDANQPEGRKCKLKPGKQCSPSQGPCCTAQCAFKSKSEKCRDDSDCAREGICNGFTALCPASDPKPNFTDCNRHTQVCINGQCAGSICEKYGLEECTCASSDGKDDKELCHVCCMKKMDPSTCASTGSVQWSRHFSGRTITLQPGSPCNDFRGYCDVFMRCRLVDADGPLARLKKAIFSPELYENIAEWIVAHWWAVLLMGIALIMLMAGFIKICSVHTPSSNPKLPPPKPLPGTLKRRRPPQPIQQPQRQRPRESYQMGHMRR
Method: mADAM-10 or hADAM-10 activity was measured as the ability to cleave a 10-residue peptide (DABCYL-Leu-Leu-Ala-Gln-Lys-*-LeuArg-Ser-Ser-Arg-EDANS). […] Enzyme was diluted to a final active concentration of 5 nM in Buffer A (50 mM HEPES 8.0, 100 mM NaCl, 1 mM CaCl2 and 0.01% NP-40). Serial dilutions for compounds were performed ranging from 100 μM to 0.5 nM using a Beckman Biomek 2000 in polypropylene plates (Greiner). […] This reaction was incubated for 16 hr at RT and fluorescence was read using identical conditions.

[2] = target: T2, MMP-1 (Fibroblast collagenase) (Homo sapiens, UniProt P03956); experiment: In vitro metalloprotease inhibition, MMP-1; format: biochemical
T2 sequence (P03956 100-469): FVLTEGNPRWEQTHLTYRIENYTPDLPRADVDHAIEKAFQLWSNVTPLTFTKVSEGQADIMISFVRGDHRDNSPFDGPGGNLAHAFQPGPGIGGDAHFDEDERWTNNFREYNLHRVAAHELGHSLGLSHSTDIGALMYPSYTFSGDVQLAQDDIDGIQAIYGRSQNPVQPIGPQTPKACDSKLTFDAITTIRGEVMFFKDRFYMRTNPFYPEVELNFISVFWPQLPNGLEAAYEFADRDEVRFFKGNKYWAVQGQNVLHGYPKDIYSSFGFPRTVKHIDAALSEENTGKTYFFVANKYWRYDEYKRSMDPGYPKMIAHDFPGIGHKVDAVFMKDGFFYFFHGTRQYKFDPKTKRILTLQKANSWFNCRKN
Source text: (§1) Blank cells indicate lack of data only.

[3] = target: T3, MMP-2 (72 kDa gelatinase, gelatinase A) (Homo sapiens, UniProt P08253); experiment: In vitro metalloprotease inhibition, MMP-2; format: biochemical
T3 sequence (P08253 110-660): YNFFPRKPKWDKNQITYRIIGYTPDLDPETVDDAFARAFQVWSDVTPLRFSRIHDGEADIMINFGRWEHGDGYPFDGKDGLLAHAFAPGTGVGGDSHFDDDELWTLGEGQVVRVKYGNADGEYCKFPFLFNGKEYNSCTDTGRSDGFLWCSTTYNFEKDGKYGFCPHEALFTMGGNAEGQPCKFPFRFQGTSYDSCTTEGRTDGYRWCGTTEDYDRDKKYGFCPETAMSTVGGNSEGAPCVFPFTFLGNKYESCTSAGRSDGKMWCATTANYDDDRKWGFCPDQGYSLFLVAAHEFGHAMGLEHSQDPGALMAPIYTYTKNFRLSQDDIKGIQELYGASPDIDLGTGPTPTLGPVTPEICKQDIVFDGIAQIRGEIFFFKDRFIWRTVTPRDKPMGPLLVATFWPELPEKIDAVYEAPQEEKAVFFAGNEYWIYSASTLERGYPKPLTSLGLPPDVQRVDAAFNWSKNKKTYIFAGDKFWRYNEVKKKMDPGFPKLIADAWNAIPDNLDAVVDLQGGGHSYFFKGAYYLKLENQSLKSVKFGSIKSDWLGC

[4] = target: MMP-3 (Stromelysin-1) (Homo sapiens, UniProt P08254); experiment: In vitro metalloprotease inhibition, MMP-3; format: biochemical
Source text: as §1

[5] = target: MMP-13 (collagenase-3) (Homo sapiens, UniProt P45452); experiment: In vitro metalloprotease inhibition, MMP-13; format: biochemical

MMP-3 (Stromelysin-1), sequence (P08254 100-477, species assumed): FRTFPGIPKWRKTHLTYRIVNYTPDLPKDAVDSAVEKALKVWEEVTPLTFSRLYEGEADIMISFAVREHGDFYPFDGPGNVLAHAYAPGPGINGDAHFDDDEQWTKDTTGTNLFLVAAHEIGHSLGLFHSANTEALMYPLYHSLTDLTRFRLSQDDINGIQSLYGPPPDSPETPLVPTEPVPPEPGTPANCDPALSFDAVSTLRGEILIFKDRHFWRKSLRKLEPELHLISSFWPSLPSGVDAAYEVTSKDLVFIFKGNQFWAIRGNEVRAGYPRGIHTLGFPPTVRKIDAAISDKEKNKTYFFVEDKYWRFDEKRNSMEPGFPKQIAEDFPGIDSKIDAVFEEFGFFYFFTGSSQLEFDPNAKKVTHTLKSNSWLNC

Structure (SMILES)	IC50 [1] [nM]	IC50 [2] [nM]	IC50 [3] [nM]	IC50 [4] [nM]	IC50 [5] [nM]
N#Cc1ccc(Oc2ccc(S(=O)(=O)N3CCN(C(=O)N4CCOCC4)C[C@@H]3C(=O)NO)cc2F)cc1 [Entry 7]	< 50	50 to 1000	< 50	< 50	< 50
O=C(NO)[C@H]1CN(S(=O)(=O)c2cc(F)c(O)c(F)c2)CCN1S(=O)(=O)c1cc(F)c(Oc2ccc(Cl)cc2)c(F)c1 [Entry 41]	< 50	1000 to 20000	< 50	< 50	< 50
O=C(NO)[C@H]1CN(S(=O)(=O)CCN2CCOCC2)CCN1S(=O)(=O)c1cc(F)c(Oc2ccc(Cl)cc2)c(F)c1 [Entry 57]	50 to 1000	> 20000	50 to 1000	1000 to 20000	50 to 1000
COCCOC(=O)N1CCN(S(=O)(=O)c2cc(F)c(Oc3ccc(F)cc3)c(F)c2)[C@@H](C(=O)NO)C1 [Entry 10]	< 50	1000 to 20000	< 50	1000 to 20000	< 50
O=C(NO)[C@H]1CN(C(=O)N2CCOCC2)CCN1S(=O)(=O)c1ccc(Oc2ccc(F)cc2)cc1 [Entry 2]	< 50	< 50	< 50	< 50	< 50
CN(C)c1ccc2ccc(S(=O)(=O)N3CCN(S(=O)(=O)c4cc(F)c(Oc5ccc(Cl)cc5)c(F)c4)[C@@H](C(=O)NO)C3)cc2c1 [Entry 50]	1000 to 20000	> 20000	> 20000	50 to 1000	< 50
O=C(CN1CCOCC1)NC(=O)N1CCN(S(=O)(=O)c2cc(F)c(Oc3ccc(Cl)cc3)c(F)c2)[C@@H](C(=O)NO)C1 [Entry 46]	< 50	1000 to 20000	< 50	50 to 1000	< 50
O=C(NO)[C@H]1CN(C(=O)OCCN2CCCCC2)CCN1S(=O)(=O)c1cc(F)c(Oc2ccc(Cl)cc2)c(F)c1 [Entry 27]	< 50	1000 to 20000	< 50	50 to 1000	< 50
O=C(NO)[C@H]1CN(C(=O)Cc2ccncc2)CCN1S(=O)(=O)c1cc(F)c(Oc2ccc(Cl)cc2)c(F)c1 [Entry 52]	< 50	1000 to 20000	< 50	1000 to 20000	< 50
O=C(NO)[C@H]1CN(C(=O)C(=O)N2CCCCC2)CCN1S(=O)(=O)c1cc(F)c(Oc2ccc(Cl)cc2)c(F)c1 [Entry 35]	< 50	1000 to 20000	< 50	50 to 1000	< 50
O=C(NO)[C@H]1CN(S(=O)(=O)CCN2CCCCC2)CCN1S(=O)(=O)c1cc(F)c(Oc2ccc(Cl)cc2)c(F)c1 [Entry 53]	< 50	50 to 1000	< 50	50 to 1000	< 50
CN1CCN(CC(=O)N2CCN(S(=O)(=O)c3cc(F)c(Oc4ccc(Cl)cc4)c(F)c3)[C@@H](C(=O)NO)C2)CC1 [Entry 24]	< 50	> 20000	< 50	1000 to 20000	< 50
CN(C)C(=O)CN1CCN(S(=O)(=O)c2cc(F)c(Oc3ccc(Cl)cc3)c(F)c2)[C@@H](C(=O)NO)C1 [Entry 20]	< 50	> 20000	< 50	1000 to 20000	< 50
CN1CCN(C(=O)NS(=O)(=O)N2CCN(S(=O)(=O)c3cc(F)c(Oc4ccc(Cl)cc4)c(F)c3)[C@@H](C(=O)NO)C2)CC1 [Entry 39]	< 50	50 to 1000	< 50	< 50	< 50
O=C(NO)[C@H]1CN(C(=O)N2CCOCC2)CCN1S(=O)(=O)c1ccc(-c2cccc(F)c2)nc1 [Entry 58]	< 50	50 to 1000	< 50	50 to 1000	< 50
O=C(NO)[C@H]1CN(C(=O)OCc2ccccc2)CCN1S(=O)(=O)c1cc(F)c(Oc2ccc(Cl)cc2)c(F)c1 [Entry 32]	< 50	1000 to 20000	< 50	50 to 1000	< 50
COCCOC(=O)N1CCN(S(=O)(=O)c2ccc(Oc3ccc(F)cc3)cc2)[C@@H](C(=O)NO)C1 [Entry 1]	< 50	< 50	< 50	< 50	< 50
COCCOC(=O)N1CCN(S(=O)(=O)c2ccc(Oc3ccc4c(c3)CCCC4)nc2)[C@@H](C(=O)NO)C1 [Entry 64]	< 50	50 to 1000	< 50	< 50	< 50
O=C(NO)[C@H]1CN(S(=O)(=O)c2cccc3cnccc23)CCN1S(=O)(=O)c1cc(F)c(Oc2ccc(Cl)cc2)c(F)c1 [Entry 48]	< 50	> 20000	< 50	50 to 1000	< 50
CN1CCC(OC(=O)N2CCN(S(=O)(=O)c3cc(F)c(Oc4ccc(Cl)cc4)c(F)c3)[C@@H](C(=O)NO)C2)CC1 [Entry 22]	< 50	1000 to 20000	< 50	50 to 1000	< 50
O=C(NO)[C@H]1CN(C(=O)c2ccncc2)CCN1S(=O)(=O)c1cc(F)c(Oc2ccc(Cl)cc2)c(F)c1 [Entry 42]	< 50	1000 to 20000	< 50	1000 to 20000	< 50
O=C(NO)[C@H]1CN(C(=O)CN2CCCCC2)CCN1S(=O)(=O)c1cc(F)c(Oc2ccc(Cl)cc2)c(F)c1 [Entry 26]	< 50	> 20000	< 50	1000 to 20000	< 50
O=C(NO)[C@H]1CN(C(=O)N2CCOCC2)CCN1S(=O)(=O)c1ccc(Oc2ccc(Cl)cc2)c(F)c1 [Entry 6]	< 50	50 to 1000	< 50	< 50	< 50
CC(C)(C)OC(=O)N1CCN(S(=O)(=O)c2cc(F)c(Oc3ccc(F)cc3)c(F)c2)[C@@H](C(=O)NO)C1 [Entry 9]	< 50	1000 to 20000	< 50	1000 to 20000	1000 to 20000
O=C(NO)[C@H]1CN(C(=O)CN2CCOCC2)CCN1S(=O)(=O)c1cc(F)c(Oc2ccc(Cl)cc2)c(F)c1 [Entry 25]	< 50	> 20000	< 50	50 to 1000	< 50
CCOC(=O)N1CCN(CC(=O)N2CCN(S(=O)(=O)c3cc(F)c(Oc4ccc(Cl)cc4)c(F)c3)[C@@H](C(=O)NO)C2)CC1 [Entry 23]	< 50	> 20000	< 50	1000 to 20000	< 50
CN(C)S(=O)(=O)N1CCN(S(=O)(=O)c2cc(F)c(Oc3ccc(Cl)cc3)c(F)c2)[C@@H](C(=O)NO)C1 [Entry 36]	< 50	1000 to 20000	< 50	50 to 1000	< 50
CN1CCN(S(=O)(=O)c2cc(F)c(Oc3ccc(F)cc3)c(F)c2)[C@@H](C(=O)NO)C1 [Entry 14]	50 to 1000	> 20000	< 50	> 20000	< 50
